This is an account of results in PubChem BioAssay (NCI).

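Tested at 5 concentrations; 48 h exposure; 96-well plates; endpoints linearly interpolated, else capped at highest concentration. GI50 = concentration required for 50% inhibition of growth. TGI: concentration producing complete growth inhibition.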

What all share (assay): DTP human tumour cell line panel, 48 h
For experiment [1], the system named is HCC-2998 colon.
Experiment [2] relates to HL-60(TB) leukemia.
Experiment [3] deals with K-562 leukemia.
Experiment [4] has as its system OVCAR-4 ovarian.
The test system of experiment [5] is OVCAR-5 ovarian.
Experiment [6] relates to DU-145 prostate.
Experiment [7] concerns MCF7 breast.
The test system of experiment [8] is MDA-MB-231 breast.
For experiment [9], the system named is MDA-N.
Experiment [10] deals with NCI/ADR-RES ovarian.
Experiment [11] concerns SNB-75 CNS.

Usually TGI stands for the concentration giving total growth inhibition. Low values mean greater sensitivity of the cells, high ones lower sensitivity of the cells. As for `COc1ccc2c(c1)CCCN2CCCCCCCCCCN(CCC(C)C)CCC(C)C`, the TGI in experiment [1] worked out at 19.2 µM; in experiment [2], 9.61 µM; in [3] it was 40 µM; in experiment [4], 19.4 µM; in [5], 28.4 µM.
Consider `COc1ccc2c(C(=O)c3cn(CCN4CCOCC4)c4ccccc34)cccc2c1`, for which the TGI in experiment [6] was above 100 µM; in [1], above 100 µM; in [2], 54.3 µM; in experiment [3] it was above 100 µM; in experiment [7], above 80.2 µM; in experiment [8], above 100 µM. Besides, the TGI in experiment [9], in experiment [10], in experiment [4], in experiment [5] and in [11] was above 100 µM each time.
In the case of `C[C@H]1C(=O)O[C@@H]2CCN3CC=C(COC(=O)[C@](C)(O)[C@@]1(C)O)[C@H]23`, the TGI in experiment [6], in [1], in experiment [2], in experiment [3], in experiment [7] and in [8] was above 100 µM in each case. The TGI in experiment [9], in experiment [10], in experiment [4], in [5] and in experiment [11] was above 100 µM throughout.
As for `CC(=O)NNc1nc(-c2ccc([N+](=O)[O-])cc2)c(C#N)c(=O)n1C`, the TGI in experiment [6] is above 100 µM; in experiment [2], 82.6 µM; in [3], 89.5 µM; in [7], 97.3 µM; in experiment [8], 34.2 µM; in experiment [9], above 100 µM. In addition, the TGI in [10] is above 100 µM; in experiment [4], 52.7 µM; in experiment [5], 77 µM; in experiment [11], 54.9 µM.
Turning to `CN(C)CCNC(=O)c1cccc2ccc(-c3ccc(F)cc3)nc12`, the TGI stood at 19.3 µM in experiment [1]; 7.49 µM in experiment [2]; 12 µM in experiment [3]; 20.5 µM in experiment [7]; 18.4 µM in experiment [10]; 18.3 µM in [4]. For the same compound, the TGI in [5] came to 25.6 µM; in [11] it was 19.6 µM.
As for `Nc1ccccc1N=Cc1cc2cc([N+](=O)[O-])ccc2s1`, the TGI in experiment [6] was 36.1 µM; in experiment [1] it was 54.6 µM; in experiment [2] it was 32 µM; in experiment [3], 35.1 µM; in experiment [7], 23 µM; in [8], 39.2 µM. Also, the TGI in [9] was above 100 µM; in [10], above 100 µM; in [5] it was above 100 µM; in experiment [11], 28.8 µM.
On to `COc1ccc(C2=C3SC=c4ccccc4=C3ON=C2c2ccccc2)cc1`, for which the TGI in experiment [6], in experiment [1], in [2], in experiment [3], in [7] and in experiment [8] was above 100 µM throughout. Moreover, the TGI in experiment [10], in experiment [4] and in [5] was above 100 µM in each case.
For `N=C1C(=N)c2ccccc2-c2ccccc21.N=C1C(=N)c2ccccc2-c2ccccc21.N=C1C(=N)c2ccccc2-c2ccccc21.[Cl-].[Ru+2]`, the TGI is above 31.6 µM in [1]; 3.76 µM in experiment [2]; 4.68 µM in experiment [3]; 2.85 µM in experiment [4]; 18.6 µM in experiment [5]; 4.25 µM in experiment [11].
As for `Nc1n[nH]c(=O)c2c1c(I)cn2C1OC(CO)C(O)C1O` (stereo unspecified), the TGI in experiment [1] is 7.45 µM; in experiment [2] it was 0.348 µM; in experiment [3], above 100 µM; in experiment [4] it was 14.4 µM; in experiment [11], 2.81 µM.
Broadly, the GI50 is the concentration giving 50% growth inhibition. As for `NCCc1cc(O)c(O)cc1O`, the TGI in [6] is 32.4 µM; in experiment [1] it was above 100 µM; in experiment [2] it was 65.6 µM; in [3] it was above 80.5 µM; in [7], 44.4 µM; in experiment [8], 44.6 µM. Moreover, the TGI was 47 µM in experiment [9]; above 86.7 µM in experiment [10]; 25.6 µM in experiment [4]; 61.3 µM in experiment [5]; 70.6 µM in experiment [11]. In addition, the GI50 in experiment [2] is 12.8 µM; in experiment [4], 12.3 µM.
Consider `O=C1NI(C#Cc2ccccc2)c2ccccc21`, for which the TGI in experiment [6] is above 100 µM; in experiment [2] it was above 100 µM; in [3] it was above 100 µM; in experiment [7], 94.3 µM; in experiment [8] it was above 100 µM; in [9], above 100 µM. The TGI in experiment [10] and in experiment [4] was above 100 µM throughout.
For `COc1cc(/C=C/C(=O)Oc2ccc(NC(C)=O)cc2)ccc1C(=O)O/C=C/c1ccccc1`, the TGI was above 100 µM in experiment [1]; above 100 µM in experiment [2]; above 31.6 µM in experiment [3]; above 100 µM in experiment [7]; above 100 µM in experiment [10]; above 100 µM in experiment [4]. The TGI in experiment [5] and in experiment [11] was above 100 µM in each case.
Take `CN(C)CCCn1cnc2cc(Cl)c(Cl)cc21`: the TGI in experiment [6] was above 100 µM; in [1], 40.6 µM; in [2], above 100 µM; in [3], above 100 µM; in [7] it was above 100 µM; in experiment [8] it was above 100 µM. In addition, the TGI in experiment [9] was above 100 µM; in experiment [10], above 100 µM; in experiment [4], above 100 µM; in experiment [5], above 100 µM; in experiment [11], 98.9 µM.
Regarding `FC(F)(F)c1ccc2c(c1)nc(-c1ccc(Cl)cc1)n2CC1CCCN2CCCCC12` (stereo unspecified), the concentration for total growth inhibition (TGI) in experiment [6] is 30.4 µM; in [1], 26.7 µM; in [2], 29.2 µM; in experiment [7], 29.8 µM; in experiment [8], 20.3 µM; in experiment [9], 29.9 µM. Further, the TGI turned out to be 29.2 µM in experiment [10], 35.6 µM in [4], 21.4 µM in experiment [5] and 21.7 µM in [11].
For `CC(C)(C)[Si](C)(C)Oc1ccc(C2CNC(=O)C23CCC(=O)N3Cc2ccccc2)cc1` (stereo unspecified), the concentration for total growth inhibition (TGI) was 38.7 µM in experiment [6]; 49.2 µM in [2]; above 100 µM in experiment [3]; 17.6 µM in [7]; 27.3 µM in [9]; 26.7 µM in experiment [10]. Further, the TGI was 29.1 µM in experiment [4], 36.9 µM in [5] and 32.1 µM in experiment [11].
Regarding `Oc1cn(-c2ccc(Cl)cc2)nc1-c1n[nH]c(=S)n1-c1ccccc1`, the TGI in experiment [6] is above 100 µM; in [2], above 100 µM; in [3] it was above 100 µM; in experiment [7], 21.9 µM; in experiment [8], above 100 µM; in experiment [10] it was 14.1 µM. Also, the concentration for total growth inhibition (TGI) was above 100 µM in experiment [4], 46.2 µM in experiment [5] and above 100 µM in experiment [11].
As for `COC(C)(C)OCCN1CCN(CCN2C3=C(C=C(C(C)=O)C3)Sc3ccccc32)CC1`, the TGI came to 68.8 µM in experiment [6]; 36.2 µM in [1]; 35.8 µM in experiment [2]; 32.2 µM in experiment [3]; 52.4 µM in [8]; 36.5 µM in experiment [9]. The TGI was 50.2 µM in experiment [10], above 100 µM in experiment [4], 59.1 µM in experiment [5] and above 100 µM in [11].
Take `NCCCn1c2c(c3ccc([N+](=O)[O-])cc3c1=O)C(=O)c1ccccc1-2`: the GI50 in experiment [6] was 0.0455 µM; in experiment [2], 0.031 µM; in experiment [3] it was 0.0335 µM; in experiment [7], 0.0122 µM; in [8], 0.136 µM; in [10] it was 0.427 µM. For the same compound, the values for the GI50 in [4], in experiment [5] and in experiment [11] were 0.116 µM, 0.414 µM and 0.835 µM, respectively. The TGI in experiment [6] is 0.474 µM; in [2], above 19.3 µM; in [7] it was above 50 µM; in experiment [8], 0.472 µM; in [10], 2.41 µM; in experiment [4] it was 0.47 µM. Moreover, the TGI in [5] came to 1.3 µM; in experiment [11] it was 2.67 µM.
As for `Cc1c2cccc-2c(OCCO)cc2c3ccccc3n(C)c12`, the TGI is 20.6 µM in experiment [6]; 14.6 µM in experiment [1]; 7.19 µM in [2]; 21.4 µM in experiment [3]; 20.8 µM in [7]; 10 µM in experiment [8]. Also, the TGI in [9] is 16.1 µM; in experiment [10], above 100 µM; in experiment [4], 15.1 µM; in experiment [5], 16.1 µM; in experiment [11], 35.5 µM.
`Cc1cc2c(cc1C(=O)c1ccc(N)cc1)OCO2`: the TGI in experiment [6] is above 100 µM; in [2], above 100 µM; in experiment [3] it was above 100 µM; in [7], 53.8 µM; in experiment [8], above 100 µM; in experiment [9], 35.1 µM. Moreover, the concentration for total growth inhibition (TGI) in experiment [10] is 87.7 µM; in [5], above 100 µM.
Regarding `COc1ccc(/C(Cl)=C(\C=O)c2ccc(OC)cc2)cc1`, the TGI in experiment [1] is above 100 µM; in experiment [2] it was 80.9 µM; in experiment [3] it was above 100 µM; in [4], above 100 µM; in experiment [5] it was above 100 µM; in experiment [11], above 100 µM.
Consider `CCc1nc(N)nc(N)c1-c1ccc([N+](C)(C)C)cc1`, for which the TGI in experiment [6], in experiment [1], in experiment [2], in [3], in experiment [7] and in [8] was above 100 µM throughout. Further, the TGI in [9], in experiment [10], in experiment [4], in experiment [5] and in experiment [11] was above 100 µM each time.
As to `O=P1(c2ccccc2)Nc2ccccc2SSc2ccccc2N1`, the total growth inhibition concentration (TGI) came out at 37.6 µM in experiment [1]; 39.6 µM in [2]; 51.4 µM in experiment [3]; 37.5 µM in [7]; 42.3 µM in experiment [10]; 33.6 µM in [4]. Besides, the TGI in [5] is 36.1 µM; in experiment [11], 39.4 µM.
`Cc1cc(/N=C/c2ccc(F)cc2)n(-c2ccccc2)n1`: the TGI in experiment [6], in [2], in experiment [3], in experiment [7], in experiment [8] and in [9] was above 100 µM throughout. The TGI in [10], in experiment [4], in experiment [5] and in [11] was above 100 µM each time.
For the compound `CCOC(=O)c1c2c(n(Cc3ccccc3)c1C)C(=O)C(=O)c1ccccc1-2`, the total growth inhibition concentration (TGI) in experiment [6] was 0.972 µM; in experiment [1], 1.17 µM; in experiment [2], 0.0983 µM; in experiment [3] it was above 100 µM; in experiment [8], 1.99 µM; in experiment [10] it was above 100 µM. Besides, the TGI in [11] turned out to be 2.69 µM.
